Test results published in patent publication US20080207731A1, “3-(3-INDOLYL) PROPIONIC ACID CALCIUM SALT AND METHOD OF MAKING 3-(3-INDOLYL) PROPIONIC ACID FREE ACID THEREFROM” (Intellect Neurosciences, Inc., priority 2006, published 2008).
Counter-ions that a name gives are not always drawn.

Key:
[1] = solubility in water of 3-IPA salts; format: physicochemical
[2] = tested on: cultured neurons; conditions: background statement; cited from earlier work

| solubility in water ([1]; compared to the calcium salts of other acids present in the reaction mixture (e.g., acrylic acid or acetic acid)) | solubility ([1]; compared to the free acid form of 3-IPA) | SMILES | protection from toxicity of the Aβ peptide [2] |
| --- | --- | --- | --- |
| much less soluble in water | low solubility | O=C(O)CCc1c[nH]c2ccccc12 [3-IPA calcium, calcium salt of 3-(3-indolyl)propionic acid] | – |
| – | – | O=C(O)CCc1c[nH]c2ccccc12 [3-IPA, 3-(3-indolyl)propionic acid] | protect cultured neurons from the toxicity of the Aβ peptide |
